Patent publication US20240059671A1, “TYROSINE KINASE 2 (TYK2) DEGRADATION COMPOUNDS AND METHODS OF USE” (CULLGEN (SHANGHAI), INC., priority 2020, published 2024)

Target: TYK2 (Homo sapiens, UniProt P29597)
Test: TYK2 protein degradation in NOMO-1 cells by immunoblotting
Type: cell-based
Set-up: endogenous in cells
Settings: NOMO-1 cells
Description: NOMO-1 cells were treated with CPD-155, CPD-157, and CPD-158 at 0.1, 1, 10, 100 and 1000 nM concentrations for 16 hours. […] Data shown that CPD-155, CPD-157, and CPD-158 are very potent at the reduction protein levels of TYK2.
MOLT-4 or NOMO-1 cells were cultured at 37° C. with 5% CO2 in RPMI 1640 Medium supplemented with 10% fetal bovine serum. Cells were authenticated using the short tandem repeat (STR) assays. Mycoplasma test results were negative.
Cultured cells were washed with cold PBS once and lysed in cold RIPA buffer supplemented with protease inhibitors and phosphatase inhibitors (Beyotime Biotechnology). The solutions were then incubated at 4° C. for 30 minutes with gentle agitation to fully lyse cells. Cell lysates were centrifuged at 13,000 rpm for 10 minutes at 4° C. and pellets were discarded. Total protein concentrations in the lysates were determined by BCA assays (Beyotime Biotechnology). Cell lysates were mixed with Laemmli loading buffer to 1× and heated at 99° C. for 5 min. Proteins were resolved on SDS-PAGE and visualized by chemiluminescence. Images were taken by a ChemiDoc MP Imaging system (Bio-Rad). Protein bands were quantitated using the accompanied software provided by Bio-Rad.

Chain of TYK2 (P29597 whole entry): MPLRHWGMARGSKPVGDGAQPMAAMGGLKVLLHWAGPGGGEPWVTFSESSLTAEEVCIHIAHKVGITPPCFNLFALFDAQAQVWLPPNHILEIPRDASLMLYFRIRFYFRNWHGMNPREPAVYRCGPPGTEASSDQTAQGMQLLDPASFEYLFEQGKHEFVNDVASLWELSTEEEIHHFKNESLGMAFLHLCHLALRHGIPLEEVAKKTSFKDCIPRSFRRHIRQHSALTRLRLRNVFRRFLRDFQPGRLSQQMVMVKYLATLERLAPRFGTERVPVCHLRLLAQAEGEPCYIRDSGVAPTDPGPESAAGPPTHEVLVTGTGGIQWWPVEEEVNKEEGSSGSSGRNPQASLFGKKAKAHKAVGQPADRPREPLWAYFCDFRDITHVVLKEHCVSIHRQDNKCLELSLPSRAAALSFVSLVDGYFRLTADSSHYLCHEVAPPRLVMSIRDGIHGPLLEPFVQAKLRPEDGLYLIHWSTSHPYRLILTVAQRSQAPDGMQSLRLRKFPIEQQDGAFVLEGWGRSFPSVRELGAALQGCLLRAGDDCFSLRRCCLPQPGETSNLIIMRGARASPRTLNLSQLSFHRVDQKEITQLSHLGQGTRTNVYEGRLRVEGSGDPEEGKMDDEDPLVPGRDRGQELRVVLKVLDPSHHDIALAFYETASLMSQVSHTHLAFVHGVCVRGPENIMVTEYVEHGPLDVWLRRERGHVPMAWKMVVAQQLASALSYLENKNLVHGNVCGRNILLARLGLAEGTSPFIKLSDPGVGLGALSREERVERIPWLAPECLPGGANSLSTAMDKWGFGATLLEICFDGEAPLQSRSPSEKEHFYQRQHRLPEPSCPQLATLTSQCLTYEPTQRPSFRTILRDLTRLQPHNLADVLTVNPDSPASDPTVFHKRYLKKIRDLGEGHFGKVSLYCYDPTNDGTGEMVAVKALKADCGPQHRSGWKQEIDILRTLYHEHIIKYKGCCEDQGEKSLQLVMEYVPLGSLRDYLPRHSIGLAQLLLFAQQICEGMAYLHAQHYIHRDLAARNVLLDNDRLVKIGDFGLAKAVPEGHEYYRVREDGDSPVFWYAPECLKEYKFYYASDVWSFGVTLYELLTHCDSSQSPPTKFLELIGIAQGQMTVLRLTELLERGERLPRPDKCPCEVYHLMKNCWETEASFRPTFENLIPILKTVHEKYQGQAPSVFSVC

| Compound | TYK2 Degradation (NOMO-1, 10 nM) | TYK2 Degradation (NOMO-1, 100 nM) |
| --- | --- | --- |
| CNC(=O)c1nnc(Nc2ccc(N3CCN(C(=O)CCCCCCC(=O)N[C@H](C(=O)N4C[C@H](O)C[C@H]4C(=O)N[C@H]4CCCc5[nH]c(=O)c(C)cc54)C(C)(C)C)CC3)cn2)cc1Nc1cccc(-c2ncn(C)n2)c1OC [CDD-174, 6-((5-(4-(8-(((S)-1-((2S,4R)-4-hydroxy-2-(((S)-3-methyl-2-oxo-1,2,5,6,7,8-hexahydroquinolin-5-yl)carbamoyl)pyrrolidin-1-yl)-3,3-dimethyl-1-oxobutan-2-yl)amino)-8-oxooctanoyl)piperazin-1-yl)pyridin-2-yl)amino)-4-((2-methoxy-3-(1-methyl-1H-1,2,4-triazol-3-yl)phenyl)amino)-N-methylpyridazine-3-carboxamide] | C (C: ≤20% TYK2 degradation) | C (C: ≤20% TYK2 degradation) |
| CNC(=O)c1nnc(Nc2ccc(C(=O)NCCCNc3ccc4c(c3)C(=O)N(C3CCC(=O)NC3=O)C4=O)cn2)cc1Nc1cccc(-c2ncn(C)n2)c1OC (stereo not drawn) [CDD-175, 6-((5-((3-((2-(2,6-dioxopiperidin-3-yl)-1,3-dioxoisoindolin-5-yl)amino)propyl)carbamoyl)pyridin-2-yl)amino)-4-((2-methoxy-3-(1-methyl-1H-1,2,4-triazol-3-yl)phenyl)amino)-N-methylpyridazine-3-carboxamide] | A (A: ≥60% TYK2 degradation) | A (A: ≥60% TYK2 degradation) |
| CNC(=O)c1nnc(Nc2ccc(C(=O)NCCNc3ccc4c(c3)C(=O)N(C3CCC(=O)NC3=O)C4=O)cn2)cc1Nc1cccc(-c2ncn(C)n2)c1OC (stereo not drawn) [CDD-176, 6-((5-((2-((2-(2,6-dioxopiperidin-3-yl)-1,3-dioxoisoindolin-5-yl)amino)ethyl)carbamoyl)pyridin-2-yl)amino)-4-((2-methoxy-3-(1-methyl-1H-1,2,4-triazol-3-yl)phenyl)amino)-N-methylpyridazine-3-carboxamide] | C (C: ≤20% TYK2 degradation) | C (C: ≤20% TYK2 degradation) |
| CNC(=O)c1nnc(Nc2ccc(N3CCN(C(=O)CCCCCCC(=O)N[C@H](C(=O)N4C[C@H](O)C[C@H]4C(=O)N[C@@H](C)c4ccc(-c5scnc5C)cc4)C(C)(C)C)CC3)cn2)cc1Nc1cccc(-c2ncn(C)n2)c1OC [CDP-112, 6-((5-(4-(8-(((S)-1-((2S,4R)-4-Hydroxy-2-(((S)-1-(4-(4-methylthiazol-5-yl)phenyl)ethyl)carbamoyl)pyrrolidin-1-yl)-3,3-dimethyl-1-oxobutan-2-yl)amino)-8-oxooctanoyl)piperazin-1-yl)pyridin-2-yl)amino)-4-((2-methoxy-3-(1-methyl-1H-1,2,4-triazol-3-yl)phenyl)amino)-N-methylpyridazine-3-carboxamide] | A (A: ≥60% TYK2 degradation) | A (A: ≥60% TYK2 degradation) |
| CNC(=O)c1nnc(Nc2ccc(N3CCN(CCCCCCCC(=O)N[C@H](C(=O)N4C[C@H](O)C[C@H]4C(=O)N[C@@H](C)c4ccc(-c5scnc5C)cc4)C(C)(C)C)CC3)cn2)cc1Nc1cccc(-c2ncn(C)n2)c1OC [CPD-113, 6-((5-(4-(8-(((S)-1-((2S,4R)-4-Hydroxy-2-(((S)-1-(4-(4-methylthiazol-5-yl)phenyl)ethyl)carbamoyl)pyrrolidin-1-yl)-3,3-dimethyl-1-oxobutan-2-yl)amino)-8-oxooctyl)piperazin-1-yl)pyridin-2-yl)amino)-4-((2-methoxy-3-(1-methyl-1H-1,2,4-triazol-3-yl)phenyl)amino)-N-methylpyridazine-3-carboxamide] | B (B: <60% TYK2 degradation, and >20% TYK2 degradation) | A (A: ≥60% TYK2 degradation) |
| CNC(=O)c1nnc(Nc2ccc(N3CCN(C(=O)CCCCCCCCC(=O)N[C@H](C(=O)N4C[C@H](O)C[C@H]4C(=O)N[C@@H](C)c4ccc(-c5scnc5C)cc4)C(C)(C)C)CC3)cn2)cc1Nc1cccc(-c2ncn(C)n2)c1OC [CPD-114, 6-((5-(4-(10-(((S)-1-((2S,4R)-4-hydroxy-2-(((S)-1-(4-(4-methylthiazol-5-yl)phenyl)ethyl)carbamoyl)pyrrolidin-1-yl)-3,3-dimethyl-1-oxobutan-2-yl)amino)-10-oxodecanoyl)piperazin-1-yl)pyridin-2-yl)amino)-4-((2-methoxy-3-(1-methyl-1H-1,2,4-triazol-3-yl)phenyl)amino)-N-methylpyridazine-3-carboxamide] | A (A: ≥60% TYK2 degradation) | A (A: ≥60% TYK2 degradation) |
| CNC(=O)c1nnc(Nc2ccc(N3CCN(C(=O)CCCCCCCC(=O)N[C@H](C(=O)N4C[C@H](O)C[C@H]4C(=O)N[C@@H](C)c4ccc(-c5scnc5C)cc4)C(C)(C)C)CC3)cn2)cc1Nc1cccc(-c2ncn(C)n2)c1OC [CPD-115, 6-((5-(4-(9-(((S)-1-((2S,4R)-4-hydroxy-2-(((S)-1-(4-(4-methylthiazol-5-yl)phenyl)ethyl)carbamoyl)pyrrolidin-1-yl)-3,3-dimethyl-1-oxobutan-2-yl)amino)-9-oxononanoyl)piperazin-1-yl)pyridin-2-yl)amino)-4-((2-methoxy-3-(1-methyl-1H-1,2,4-triazol-3-yl)phenyl)amino)-N-methylpyridazine-3-carboxamide] | A (A: ≥60% TYK2 degradation) | A (A: ≥60% TYK2 degradation) |
| CNC(=O)c1nnc(Nc2ccc(C#CC3CCN(C(=O)CCC(=O)N[C@H](C(=O)N4C[C@H](O)C[C@H]4C(=O)N[C@@H](C)c4ccc(-c5scnc5C)cc4)C(C)(C)C)CC3)cn2)cc1Nc1cccc(-c2ncn(C)n2)c1OC [CPD-116, 6-((5-((1-(4-(((S)-1-((2S,4R)-4-Hydroxy-2-(((S)-1-(4-(4-methylthiazol-5-yl)phenyl)ethyl)carbamoyl)pyrrolidin-1-yl)-3,3-dimethyl-1-oxobutan-2-yl)amino)-4-oxobutanoyl)piperidin-4-yl)ethynyl)pyridin-2-yl)amino)-4-((2-methoxy-3-(1-methyl-1H-1,2,4-triazol-3-yl)phenyl)amino)-N-methylpyridazine-3-carboxamide] | C (C: ≤20% TYK2 degradation) | A (A: ≥60% TYK2 degradation) |
| CNC(=O)c1nnc(Nc2ccc(C#CC3CCN(C(=O)CCCCC(=O)N[C@H](C(=O)N4C[C@H](O)C[C@H]4C(=O)N[C@@H](C)c4ccc(-c5scnc5C)cc4)C(C)(C)C)CC3)cn2)cc1Nc1cccc(-c2ncn(C)n2)c1OC [CPD-117, 6-((5-((1-(6-(((S)-1-((2S,4R)-4-Hydroxy-2-(((S)-1-(4-(4-methylthiazol-5-yl)phenyl)ethyl)carbamoyl)pyrrolidin-1-yl)-3,3-dimethyl-1-oxobutan-2-yl)amino)-6-oxohexanoyl)piperidin-4-yl)ethynyl)pyridin-2-yl)amino)-4-((2-methoxy-3-(1-methyl-1H-1,2,4-triazol-3-yl)phenyl)amino)-N-methylpyridazine-3-carboxamide] | C (C: ≤20% TYK2 degradation) | A (A: ≥60% TYK2 degradation) |
| CNC(=O)c1nnc(Nc2ccc(C#CC3CCN(C(=O)CCCCCC(=O)N[C@H](C(=O)N4C[C@H](O)C[C@H]4C(=O)N[C@@H](C)c4ccc(-c5scnc5C)cc4)C(C)(C)C)CC3)cn2)cc1Nc1cccc(-c2ncn(C)n2)c1OC [CPD-118, 6-((5-((1-(7-(((S)-1-((2S,4R)-4-Hydroxy-2-(((S)-1-(4-(4-methylthiazol-5-yl)phenyl)ethyl)carbamoyl)pyrrolidin-1-yl)-3,3-dimethyl-1-oxobutan-2-yl)amino)-7-oxoheptanoyl)piperidin-4-yl)ethynyl)pyridin-2-yl)amino)-4-((2-methoxy-3-(1-methyl-1H-1,2,4-triazol-3-yl)phenyl)amino)-N-methylpyridazine-3-carboxamide] | B (B: <60% TYK2 degradation, and >20% TYK2 degradation) | A (A: ≥60% TYK2 degradation) |
| CNC(=O)c1nnc(Nc2ccc(C#CC3CCN(C(=O)CCCCCCC(=O)N[C@H](C(=O)N4C[C@H](O)C[C@H]4C(=O)N[C@@H](C)c4ccc(-c5scnc5C)cc4)C(C)(C)C)CC3)cn2)cc1Nc1cccc(-c2ncn(C)n2)c1OC [CPD-119, 6-((5-((1-(8-(((S)-1-((2S,4R)-4-Hydroxy-2-(((S)-1-(4-(4-methylthiazol-5-yl)phenyl)ethyl)carbamoyl)pyrrolidin-1-yl)-3,3-dimethyl-1-oxobutan-2-yl)amino)-8-oxooctanoyl)piperidin-4-yl)ethynyl)pyridin-2-yl)amino)-4-((2-methoxy-3-(1-methyl-1H-1,2,4-triazol-3-yl)phenyl)amino)-N-methylpyridazine-3-carboxamide] |  | A (A: ≥60% TYK2 degradation) |
